Reference: patent publication US20250127759A1, “METHODS AND DOSING REGIMENS COMPRISING A CDK2 INHIBITOR FOR THE TREATMENT OF CANCER” (PFIZER INC., priority 2021, published 2025)

Key:
ST941PBR PDX = assay: In vivo efficacy, palbociclib-resistant ST941PBR PDX model; details: Day 28, 150 mg/kg BID PO, 150 mg/kg
Procedure: Female NSG mice (Jackson Lab) were subcutaneously implanted with fragment (27 mm^3 to 64 mm^3 size) into the dorsal region. All mice for T47D, HCC1428 and ST941 PBR studies were supplemented with 8.5 μg/mL estradiol water (β-Estradiol Sigma-Aldrich, cat #E2758-5G) and gave ad libitum till end of study. For the in vivo efficacy studies, tumor volume and body weights were measured twice a week. Tumor volume was calculated using the [(Length×Width×Width)/2)] formula. TGI was calculated as 100*(1−ΔT/ΔC). The ΔC (ΔT) was obtained by subtracting the mean tumor burden in the vehicle (treated) group on the first day of treatment (Day 0) from the mean tumor burden in vehicle (treated) group on the assessment day. Statistical analysis was performed using ANCOVA when the mean tumor volume in vehicle treated mice reached tumor cutoff size.
The ST941 PBR palbociclib resistant model was obtained from XENOSTART™ LLC, San Antonio, Texas. We established model in house by continuous treatment of the ST941 PBR tumor bearing mice with PD-0332991 at 50 mg/kg, PO QD plus fulvestrant at 10 mg/kg, SC twice in the first week, then weekly thereafter. To propagate donors for the TGI study, tumors were transplanted to recipient mice. One week after the re-implantation, the recipient mice received continuous treatment with palbociclib plus fulvestrant (dosing schedule described above). After 1 to 2 serial in vivo propagation with the same treatment regimen, the resistant tumors in the range of 700 to 800 mm^3 were re-implanted for a study expansion. The remaining tumor fragments were viably frozen for future use.
The live donor mice were established by implanting ST941 PBR (p11) tumor fragments. Once reaching a range of 700 to 800 mm^3, the donor tumors were subsequently transplanted into secondary recipient mice for a study expansion. To maintain the resistant clones, the ST941 PBR tumor bearing mice were treated with PD-0332991 at 50 mg/kg, PO. QD plus fulvestrant at 10 mg/kg, SC twice in the first week, then weekly afterwards for 10 weeks. […] TGI was assessed on Day 28 post first dose.

[1] = Predicted human pharmacokinetics for starting dose
Procedure: (§1) The selection of the starting dose and regimen was based on the nonclinical toxicology and PK results in accordance with the ICH S9 Guidance. Results from nonclinical toxicity studies indicate the STD10 of PF-07104091 in mouse was 150 mg/kg after BID oral administration. The human equivalent dose for the STD10 in mouse is approximately 729 mg BID (assuming a body weight of 60 kg). Per ICH-S9 guidance, one-tenth of the STD10 can be considered the appropriate starting dose. Given the predicted human t % of approximately 4 hours, the starting dose has been selected to be 75 mg BID. The human AUC0-12 hr of PF-07104091 at the proposed starting oral dose of 75 mg BID is predicted to be ˜6.5% of the observed AUC0-12 hr at the STD10 in mouse (150 mg/kg BID) and ˜80% of the observed AUC0-12 hr at the HNSTD in dog (15 mg/kg BID).

MCF7 cells = assay: Proliferation inhibition, MCF7; type: cell-based; details: Homo sapiens, 168 h, treated for 7 days
Procedure: (§2) Anti-proliferative activity was measured in cells treated for 7 days with PF-07104091 in OVCAR3 cells, Rb mutant NCI-H526 SCLC cells, and both HR-positive HER2-negative MCF7 and the subline MCF7-PalboR (resistant to palbociclib).

[2] = tested on: MCF7-PalboR (resistant to palbociclib); assay: Proliferation inhibition, MCF7-PalboR; type: cell-based; details: 168 h, read-out: Proliferation Inhibition IC50
Procedure: as §2
The MCF7-PalboR cell model is refractory to palbociclib-induced proliferative inhibition at doses up to […], which exceeds the concentration expected to inhibit CDK4 and CDK6.

NCI-H526 cells = assay: Cell cycle distribution and DNA synthesis, NCI-H526; type: cell-based; details: 72-hour treatment with 300 nM
Procedure: (§3) The effect of PF-07104091 on cell cycle distribution and DNA synthesis was determined following 72-hour treatment with 300 nM PF-07104091.

[3] = Phase 1/2a study, safety profile; type: in vivo
From the text: DLTs will be assessed through Cycle 1 (28-day cycle with Day 29 laboratory assessments). For the purpose of dose escalation, the DLT observation period will be during the first cycle (28 days after the start of study treatment) in each participant. Severity of AEs will be graded according to Common Terminology Criteria for Adverse Events (CTCAE) version 5.0.

NCI-H526 SCLC cells = assay: Proliferation inhibition, NCI-H526; type: cell-based; details: Homo sapiens, 168 h, treated for 7 days
Procedure: as §2

NCI-H526 Model = assay: In vivo efficacy, NCI-H526 small cell lung cancer model; parameters: species or system mice; details: Day 15
Procedure: Female NSG (Jackson Lab) or Nu/nu (CRL) were subcutaneously implanted with tumor cells or fragments (8 mm^3 to 27 mm^3) into the dorsal region. For the MCF7 study, mice were supplemented with estrogen (sc implanted, 17β-estradiol, 0.36 mg, 90-day release pellet, Innovative Research of America, cat no. NE-121).
To establish the NCI-H526 model, tumor cells (4×10^6 cells/mouse with 50% Cultrex® Basement Membrane Matrix) were subcutaneously implanted in female Nu/nu mice. […] PF-07104091, Palbociclib at 10 mg/kg and CDK 2/4/6 inhibitor were administered (p.o.) BID (7 hr apart). TGI was assessed on Day 15 post first dose (or Day 20 post tumor cell implant).

MCF7-PalboR cells = assay: Cell cycle distribution and DNA synthesis, MCF7-PalboR; type: cell-based; details: 72-hour treatment with 300 nM
Procedure: as §3

[4] = Nonclinical toxicity study, dog; type: in vivo
Procedure: as §1

[5] = 75 mg to 500 mg BID, all cohorts, as of data cutoff

SMILES: COCc1cc(C(=O)Nc2cc([C@H]3CC[C@@H](OC(=O)NC(C)C)C3)[nH]n2)n(C)n1 [PF-07104091, (1R,3S)-3-[3-({[3-(methoxymethyl)-1-methyl-1H-pyrazol-5-yl]carbonyl}amino)-1H-pyrazol-5-yl]cyclopentyl propan-2-ylcarbamate]
- TGI % (ST941PBR PDX): 34%
- predicted human AUC0-12 hr as % of observed AUC0-12 hr at the HNSTD in dog ([1]; human 75 mg BID oral vs dog 15 mg/kg BID): ~80%
- predicted human AUC0-12 hr as % of observed AUC0-12 hr at the STD10 in mouse ([1]; human 75 mg BID oral vs mouse 150 mg/kg BID): ~6.5%
- predicted human t % ([1]; human, predicted): approximately 4 hours
- IC50 (MCF7 cells): 0.252 µM
- IC50 [2]: 0.68 µM
- cell cycle arrest (NCI-H526 cells): significant G2/M arrest
- S phase (cell cycle distribution) (NCI-H526 cells; p=0.057): trended towards significance
- DLTs related to PF-07104091 (number) [3, 5]: 15
- SAEs related to PF-07104091 (number) [3, 5]: 21
- deaths related to PF-07104091 [3, 5]: no deaths
- patients with at least one all-causality TEAE ([3]; 70 out of 77 patients, across all doses): 90.9%
- Grade 5 all-causality TEAEs (number) ([3]; Dyspnoea at the 225 mg BID (Part A) dose): One
- Grade 3 or higher all-causality TEAE: anaemia ([3]; across all doses): 6.5%
- Grade 3 or higher all-causality TEAE: fatigue ([3]; across all doses): 10.4%
- Grade 3 or higher all-causality TEAE: hypokalaemia ([3]; across all doses): 5.2%
- Grade 3 or higher all-causality TEAE: nausea ([3]; across all doses): 7.8%
- Grade 3 or higher all-causality TEAE: neutrophil count decreased ([3]; across all doses): 23.4%
- Grade 3 or higher all-causality TEAE: white blood cell count decreased ([3]; across all doses): 14.3%
- all-causality TEAEs Grade 3 or higher ([3]; across all doses): 49.4%
- all-causality TEAE: anaemia ([3]; across all doses, 77 patients): 31.2%
- all-causality TEAE: decreased appetite ([3]; across all doses, 77 patients): 20.8%
- all-causality TEAE: diarrhoea ([3]; across all doses, 77 patients): 37.7%
- all-causality TEAE: fatigue ([3]; across all doses, 77 patients): 41.6%
- all-causality TEAE: nausea ([3]; across all doses, 77 patients): 68.8%
- all-causality TEAE: neutrophil count decreased ([3]; across all doses, 77 patients): 32.5%
- all-causality TEAE: vomiting ([3]; across all doses, 77 patients): 37.7%
- all-causality TEAE: white blood cell count decreased ([3]; across all doses, 77 patients): 23.4%
- patients who discontinued study treatment due to AEs ([3]; all cohorts, as of data cutoff): 4 patients
- Grade 4 all-causality TEAE (number) ([3]; neutrophil count decreased 500 mg BID (1A) and 75 mg BID (3/1) (1B), platelet count decreased 150 mg BID (1B), neutropenia 75 mg BID (1C)): Four
- IC50 (NCI-H526 SCLC cells): 0.136 µM
- TGI % (NCI-H526 Model; 25 mg/kg BID PO): 44%
- TGI % (NCI-H526 Model; 75 mg/kg BID PO): 45%
- cell cycle arrest (MCF7-PalboR cells): significant G2/M arrest
- S phase (cell cycle distribution) (MCF7-PalboR cells; p≤0.05 versus vehicle): Significant S phase reduction
- HNSTD [4]: 15 mg/kg BID
